{"source": "paper PMC10150366", "about": "“Discovery of an In Vivo Chemical Probe for BCL6 Inhibition by Optimization of Tricyclic Quinolinones” (Journal of Medicinal Chemistry, 2023)", "key": {"OPRM1 [1]": {"molecular_target": "T1, OPRM1 (Homo sapiens, UniProt P35372)", "T1 sequence (P35372 whole entry)": "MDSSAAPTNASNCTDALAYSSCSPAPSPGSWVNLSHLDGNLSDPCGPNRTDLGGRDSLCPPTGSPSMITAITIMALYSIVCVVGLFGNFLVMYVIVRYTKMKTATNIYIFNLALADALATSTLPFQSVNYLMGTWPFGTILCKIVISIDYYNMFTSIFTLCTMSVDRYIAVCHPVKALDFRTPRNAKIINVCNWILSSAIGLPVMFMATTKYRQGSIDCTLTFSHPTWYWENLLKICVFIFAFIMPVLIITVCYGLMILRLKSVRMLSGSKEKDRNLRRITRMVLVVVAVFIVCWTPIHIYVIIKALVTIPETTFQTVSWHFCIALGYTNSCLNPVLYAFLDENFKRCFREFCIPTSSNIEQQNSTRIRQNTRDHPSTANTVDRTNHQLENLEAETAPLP", "assay": "SAFETYscan cAMP OPRM1 Antagonist", "format": "cell-based", "from_the_text": "(§1) Supplement jm3c00155_si_002.xlsx, sheet \"SAFETYScan\" | column: RC50 (uM); Hill; Max Response"}, "GABAA": {"molecular_target": "GABAA (Homo sapiens, UniProt P14867+P18507+P47870)", "assay": "SAFETYscan Ion Channel GABAA Blocker", "format": "cell-based", "from_the_text": "(§2) Supplement jm3c00155_si_002.xlsx, sheet \"SAFETYScan\" | column: RC50 (uM); Max Response"}, "ADRA1A": {"molecular_target": "T2, ADRA1A (Homo sapiens, UniProt P35348)", "T2 sequence (P35348 1-466)": "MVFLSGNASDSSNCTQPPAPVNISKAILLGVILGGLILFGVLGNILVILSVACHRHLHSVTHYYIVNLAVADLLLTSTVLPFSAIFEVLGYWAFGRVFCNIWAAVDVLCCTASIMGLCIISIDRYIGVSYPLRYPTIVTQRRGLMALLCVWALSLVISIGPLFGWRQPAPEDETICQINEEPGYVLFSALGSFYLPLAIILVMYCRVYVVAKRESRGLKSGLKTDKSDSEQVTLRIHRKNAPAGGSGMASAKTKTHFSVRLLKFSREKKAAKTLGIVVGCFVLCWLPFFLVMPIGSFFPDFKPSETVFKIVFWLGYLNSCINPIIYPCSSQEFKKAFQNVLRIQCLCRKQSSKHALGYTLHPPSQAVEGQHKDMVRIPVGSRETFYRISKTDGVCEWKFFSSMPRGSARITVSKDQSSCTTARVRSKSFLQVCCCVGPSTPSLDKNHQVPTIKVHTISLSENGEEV", "assay": "SAFETYscan Calcium Flux ADRA1A Agonist", "format": "cell-based", "from_the_text": "as §2"}, "DAT": {"molecular_target": "DAT (Homo sapiens, UniProt Q01959)", "sequence (Q01959 whole entry, species assumed)": "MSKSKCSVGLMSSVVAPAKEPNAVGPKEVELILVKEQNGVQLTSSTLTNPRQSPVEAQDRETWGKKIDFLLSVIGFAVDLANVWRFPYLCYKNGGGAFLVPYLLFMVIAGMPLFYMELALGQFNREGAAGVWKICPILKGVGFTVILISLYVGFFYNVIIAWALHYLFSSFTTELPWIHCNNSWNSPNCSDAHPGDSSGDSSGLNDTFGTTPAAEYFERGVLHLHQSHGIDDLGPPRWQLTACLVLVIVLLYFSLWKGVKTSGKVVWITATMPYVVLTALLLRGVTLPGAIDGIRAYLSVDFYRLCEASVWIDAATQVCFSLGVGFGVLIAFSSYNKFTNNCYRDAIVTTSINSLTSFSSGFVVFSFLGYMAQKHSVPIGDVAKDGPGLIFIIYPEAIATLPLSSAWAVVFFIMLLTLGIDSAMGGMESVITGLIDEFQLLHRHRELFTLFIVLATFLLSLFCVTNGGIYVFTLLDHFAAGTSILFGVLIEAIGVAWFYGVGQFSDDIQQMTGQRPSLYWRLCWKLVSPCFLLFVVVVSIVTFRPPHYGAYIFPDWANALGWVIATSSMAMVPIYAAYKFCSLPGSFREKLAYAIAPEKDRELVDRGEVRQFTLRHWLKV", "assay": "SAFETYscan Transporter DAT Blocker", "format": "cell-based", "from_the_text": "as §2"}, "OPRD1": {"molecular_target": "OPRD1 (Homo sapiens, UniProt P41143)", "sequence (P41143 whole entry)": "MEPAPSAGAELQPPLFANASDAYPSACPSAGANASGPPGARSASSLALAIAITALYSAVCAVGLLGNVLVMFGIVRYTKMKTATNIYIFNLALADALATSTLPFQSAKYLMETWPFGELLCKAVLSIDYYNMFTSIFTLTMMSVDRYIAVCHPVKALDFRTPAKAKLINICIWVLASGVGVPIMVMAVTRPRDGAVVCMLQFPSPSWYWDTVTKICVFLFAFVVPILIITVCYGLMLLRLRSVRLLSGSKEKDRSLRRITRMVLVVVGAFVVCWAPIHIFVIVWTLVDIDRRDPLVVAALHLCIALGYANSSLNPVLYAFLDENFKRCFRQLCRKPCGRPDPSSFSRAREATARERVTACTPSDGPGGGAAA", "assay": "SAFETYscan cAMP OPRD1 Antagonist", "format": "cell-based", "from_the_text": "as §2"}, "OPRM1 [2]": {"molecular_target": "T1, OPRM1", "assay": "SAFETYscan cAMP OPRM1 Agonist", "format": "cell-based", "from_the_text": "as §2"}, "NMDAR (1A/2B)": {"molecular_target": "NMDAR (1A/2B) (Homo sapiens, UniProt Q05586+Q13224)", "sequence (Q13224 27-1484, other chains not shown)": "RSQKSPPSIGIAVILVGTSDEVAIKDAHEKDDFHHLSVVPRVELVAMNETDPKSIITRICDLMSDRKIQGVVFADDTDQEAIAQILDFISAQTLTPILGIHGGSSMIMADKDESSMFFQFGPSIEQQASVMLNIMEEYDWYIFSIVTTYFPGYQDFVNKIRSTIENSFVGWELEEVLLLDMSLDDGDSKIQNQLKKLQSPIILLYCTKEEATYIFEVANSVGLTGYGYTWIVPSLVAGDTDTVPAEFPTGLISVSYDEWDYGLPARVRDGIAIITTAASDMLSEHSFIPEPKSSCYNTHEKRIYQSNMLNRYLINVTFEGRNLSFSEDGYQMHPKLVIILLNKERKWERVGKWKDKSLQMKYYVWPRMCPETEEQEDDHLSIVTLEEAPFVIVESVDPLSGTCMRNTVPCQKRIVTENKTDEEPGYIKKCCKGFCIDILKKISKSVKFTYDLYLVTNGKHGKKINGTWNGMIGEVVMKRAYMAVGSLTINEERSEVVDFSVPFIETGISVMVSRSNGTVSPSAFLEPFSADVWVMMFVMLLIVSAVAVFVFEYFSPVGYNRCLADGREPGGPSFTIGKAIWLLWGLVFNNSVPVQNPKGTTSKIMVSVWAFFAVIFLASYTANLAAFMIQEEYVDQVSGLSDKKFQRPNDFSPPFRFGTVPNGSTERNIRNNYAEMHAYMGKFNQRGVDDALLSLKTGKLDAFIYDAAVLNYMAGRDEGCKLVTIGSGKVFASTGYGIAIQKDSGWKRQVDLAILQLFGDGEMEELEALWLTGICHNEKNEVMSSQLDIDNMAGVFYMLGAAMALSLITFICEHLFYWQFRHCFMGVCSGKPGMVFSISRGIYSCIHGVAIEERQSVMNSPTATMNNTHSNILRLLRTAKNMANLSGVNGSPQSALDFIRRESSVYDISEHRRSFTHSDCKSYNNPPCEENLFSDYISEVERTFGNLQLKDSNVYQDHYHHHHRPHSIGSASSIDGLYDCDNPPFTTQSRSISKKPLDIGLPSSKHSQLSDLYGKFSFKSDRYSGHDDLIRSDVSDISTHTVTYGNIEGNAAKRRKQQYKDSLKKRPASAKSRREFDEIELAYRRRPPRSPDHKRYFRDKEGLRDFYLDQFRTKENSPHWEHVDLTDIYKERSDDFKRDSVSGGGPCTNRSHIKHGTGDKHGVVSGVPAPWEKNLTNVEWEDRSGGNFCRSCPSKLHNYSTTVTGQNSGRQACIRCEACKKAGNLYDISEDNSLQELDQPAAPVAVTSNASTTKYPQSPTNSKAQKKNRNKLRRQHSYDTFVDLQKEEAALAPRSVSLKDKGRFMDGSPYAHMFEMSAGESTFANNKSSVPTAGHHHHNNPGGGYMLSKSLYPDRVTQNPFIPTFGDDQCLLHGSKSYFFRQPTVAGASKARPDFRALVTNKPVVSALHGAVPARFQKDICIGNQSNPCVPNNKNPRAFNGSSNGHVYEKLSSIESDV", "assay": "SAFETYscan Ion Channel NMDAR (1A/2B) Blocker", "format": "cell-based", "from_the_text": "as §2"}, "OCI-Ly3": {"tested_on": "OCI-Ly3", "assay": "14-day cell proliferation assay, OCI-Ly3", "format": "cell-based", "settings": "Homo sapiens, 14-day assay, BCL6-independent line", "from_the_text": "(§3) DMSO final concentration.\n(§4) After a short centrifugation the\n(§5) (1st emission filter) / 450-80 nm (2nd emission filter). The % inhibition at each test concentration was […]\n(§6) sigmoidal four-parameter logistic fit equation.\n(§7) 2.3 Cell proliferation assay\n(§8) Aldrich) supplemented with 10% FBS (Gibco). Compounds were initially dispensed into 96-well U-bottom […]\n(§9) transferred onto the cells.\n(§10) Assay plates containing cells\n(§11) (Beckman Coulter). The volume of medium containing 2500 cells in the control well was calculated and this volume of cells was transferred from every well of the assay plates to the corresponding well of the fresh plates containing compound. After 14 days, CellTiter Glo reagent (Promega) was added to the medium in each well of the assay plate at a ratio of 1:2, mixed on a plate shaker, then incubated at room temperature for 10 minutes. Luminescence was measured using an Envision plate reader (Perkin Elmer) and the relative luminescence at each compound concentration, compared to DMSO alone, was calculated. GI50 were determined using a 4-parameter curve fit in Dotmatics (Bishops Stortford, UK)."}, "HT": {"tested_on": "HT", "assay": "14-day cell proliferation assay, HT", "format": "cell-based", "settings": "Homo sapiens, 14-day assay", "from_the_text": "as §3, §4, §5, §6, §7, §8, §9, §10, §11"}, "ADRA2A": {"molecular_target": "T3, ADRA2A (Homo sapiens, UniProt P08913)", "T3 sequence (P08913 1-465)": "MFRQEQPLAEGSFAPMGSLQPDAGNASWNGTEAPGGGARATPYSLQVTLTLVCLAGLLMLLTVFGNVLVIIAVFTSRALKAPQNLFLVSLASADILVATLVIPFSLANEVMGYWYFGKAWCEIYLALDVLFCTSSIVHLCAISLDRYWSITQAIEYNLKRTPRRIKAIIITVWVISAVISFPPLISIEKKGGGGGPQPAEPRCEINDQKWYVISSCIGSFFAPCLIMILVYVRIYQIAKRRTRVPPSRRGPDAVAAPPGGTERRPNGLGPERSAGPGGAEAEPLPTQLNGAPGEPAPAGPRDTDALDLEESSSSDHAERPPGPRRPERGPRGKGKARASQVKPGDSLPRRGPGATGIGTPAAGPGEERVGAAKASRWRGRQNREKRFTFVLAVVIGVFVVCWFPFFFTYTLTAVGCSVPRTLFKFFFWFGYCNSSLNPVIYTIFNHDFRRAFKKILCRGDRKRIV", "assay": "SAFETYscan cAMP ADRA2A Agonist", "format": "cell-based", "from_the_text": "as §2"}, "AVPR1A": {"molecular_target": "AVPR1A (Homo sapiens, UniProt P37288)", "sequence (P37288 whole entry)": "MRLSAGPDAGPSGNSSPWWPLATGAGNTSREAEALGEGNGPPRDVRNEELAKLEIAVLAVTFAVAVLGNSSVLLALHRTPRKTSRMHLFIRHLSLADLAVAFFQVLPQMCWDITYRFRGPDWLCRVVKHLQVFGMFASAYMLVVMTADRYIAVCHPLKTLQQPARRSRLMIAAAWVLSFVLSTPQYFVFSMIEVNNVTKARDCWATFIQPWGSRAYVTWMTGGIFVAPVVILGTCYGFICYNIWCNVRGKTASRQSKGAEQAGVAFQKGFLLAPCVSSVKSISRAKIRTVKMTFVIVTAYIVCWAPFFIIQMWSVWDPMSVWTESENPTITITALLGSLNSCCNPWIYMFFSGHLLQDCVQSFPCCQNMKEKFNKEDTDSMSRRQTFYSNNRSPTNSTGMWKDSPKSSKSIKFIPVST", "assay": "SAFETYscan Calcium Flux AVPR1A Antagonist", "format": "cell-based", "from_the_text": "as §2"}, "CHRM2": {"molecular_target": "T4, CHRM2 (Homo sapiens, UniProt P08172)", "T4 sequence (P08172 1-466)": "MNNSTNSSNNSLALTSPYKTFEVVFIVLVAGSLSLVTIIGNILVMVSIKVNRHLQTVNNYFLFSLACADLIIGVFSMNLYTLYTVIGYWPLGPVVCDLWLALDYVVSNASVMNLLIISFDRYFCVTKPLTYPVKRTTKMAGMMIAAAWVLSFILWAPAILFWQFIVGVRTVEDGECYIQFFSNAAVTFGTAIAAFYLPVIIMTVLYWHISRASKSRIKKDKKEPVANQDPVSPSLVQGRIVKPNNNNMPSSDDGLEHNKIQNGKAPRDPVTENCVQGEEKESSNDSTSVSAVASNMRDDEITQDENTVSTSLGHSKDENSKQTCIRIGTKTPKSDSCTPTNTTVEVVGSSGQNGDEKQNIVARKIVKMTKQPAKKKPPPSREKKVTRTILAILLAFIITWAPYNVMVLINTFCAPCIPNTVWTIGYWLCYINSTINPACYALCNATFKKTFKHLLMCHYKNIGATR", "assay": "SAFETYscan cAMP CHRM2 Agonist", "format": "cell-based", "from_the_text": "as §1"}, "CAV1.2": {"molecular_target": "CAV1.2 (Homo sapiens, UniProt Q13936)", "assay": "in vitro", "format": "cell-based", "from_the_text": "as §2"}, "ROCK1": {"molecular_target": "ROCK1 (Homo sapiens, UniProt Q13464)", "sequence (Q13464 whole entry)": "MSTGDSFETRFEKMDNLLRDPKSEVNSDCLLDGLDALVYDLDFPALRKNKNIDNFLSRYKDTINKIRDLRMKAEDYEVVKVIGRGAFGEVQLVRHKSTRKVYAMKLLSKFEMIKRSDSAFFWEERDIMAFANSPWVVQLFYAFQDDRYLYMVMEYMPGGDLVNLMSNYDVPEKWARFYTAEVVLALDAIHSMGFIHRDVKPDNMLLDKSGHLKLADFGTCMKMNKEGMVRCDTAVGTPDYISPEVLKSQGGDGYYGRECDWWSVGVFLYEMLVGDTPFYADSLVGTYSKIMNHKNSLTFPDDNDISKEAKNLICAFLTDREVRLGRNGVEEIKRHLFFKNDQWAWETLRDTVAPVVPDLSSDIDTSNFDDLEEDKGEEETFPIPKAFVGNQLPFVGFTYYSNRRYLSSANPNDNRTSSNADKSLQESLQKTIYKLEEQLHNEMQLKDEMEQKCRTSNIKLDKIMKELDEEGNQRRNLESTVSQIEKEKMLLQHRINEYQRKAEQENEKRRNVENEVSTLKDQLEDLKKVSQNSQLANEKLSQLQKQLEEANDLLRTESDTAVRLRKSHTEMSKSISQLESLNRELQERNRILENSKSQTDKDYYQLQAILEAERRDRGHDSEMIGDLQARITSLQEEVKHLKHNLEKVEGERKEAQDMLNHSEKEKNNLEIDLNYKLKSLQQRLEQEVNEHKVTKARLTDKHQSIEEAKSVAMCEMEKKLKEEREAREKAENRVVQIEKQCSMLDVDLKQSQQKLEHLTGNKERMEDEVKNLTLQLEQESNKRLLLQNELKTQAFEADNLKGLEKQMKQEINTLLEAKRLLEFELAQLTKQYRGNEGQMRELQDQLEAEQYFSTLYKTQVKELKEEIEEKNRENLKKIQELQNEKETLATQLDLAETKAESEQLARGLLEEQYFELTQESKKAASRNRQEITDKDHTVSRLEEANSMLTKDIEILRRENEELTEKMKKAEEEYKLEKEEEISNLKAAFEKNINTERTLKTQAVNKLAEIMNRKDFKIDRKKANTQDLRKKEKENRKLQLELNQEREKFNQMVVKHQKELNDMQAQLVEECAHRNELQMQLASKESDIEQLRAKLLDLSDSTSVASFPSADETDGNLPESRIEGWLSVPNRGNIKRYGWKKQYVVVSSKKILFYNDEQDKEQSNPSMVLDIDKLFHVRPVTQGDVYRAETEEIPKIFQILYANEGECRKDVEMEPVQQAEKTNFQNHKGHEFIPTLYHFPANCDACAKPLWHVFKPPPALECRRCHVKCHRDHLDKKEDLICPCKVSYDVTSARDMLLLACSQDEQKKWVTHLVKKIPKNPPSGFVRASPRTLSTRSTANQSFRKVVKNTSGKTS", "assay": "SAFETYscan Kinases Binding ROCK1 Inhibitor", "from_the_text": "as §2"}}, "data": [{"smiles": "Cn1c(=O)c2c(c3cc(Nc4ccnc(F)c4Cl)ccc31)N[C@@H](C1CC1)C(F)(F)CO2", "note": "[compound 17, (S)-10-((3-chloro-2-fluoropyridin-4-yl)amino)-2-cyclopropyl-3,3-difluoro-7-methyl-1,2,3,4-tetrahydro-[1,4]oxazepino[2,3-c]quinolin-6(7H)-one]", "values": [{"measurement": "IC50", "setting": "OPRM1 [1]", "result": 4.36, "unit": "µM"}, {"measurement": "Hill", "setting": "OPRM1 [1]; OPRM1, cAMP, Antagonist", "result": 0.72}, {"measurement": "Emax", "setting": "OPRM1 [1]; OPRM1, cAMP, Antagonist, read-out: Max Response", "result": 56.3, "unit": "%"}, {"measurement": "IC50", "setting": "GABAA", "result": "> 10", "unit": "µM"}, {"measurement": "Emax", "setting": "GABAA; GABAA, Ion Channel, Blocker, read-out: Max Response", "result": 0, "unit": "%"}, {"measurement": "EC50", "setting": "ADRA1A", "result": "> 10", "unit": "µM"}, {"measurement": "Emax", "setting": "ADRA1A; ADRA1A, Calcium Flux, Agonist, read-out: Max Response", "result": 0, "unit": "%"}, {"measurement": "IC50", "setting": "DAT", "result": "> 10", "unit": "µM"}, {"measurement": "Emax", "setting": "DAT; DAT, Transporter, Blocker, read-out: Max Response", "result": 0, "unit": "%"}, {"measurement": "IC50", "setting": "OPRD1", "result": "> 10", "unit": "µM"}, {"measurement": "Emax", "setting": "OPRD1; OPRD1, cAMP, Antagonist, read-out: Max Response", "result": 46, "unit": "%"}, {"measurement": "EC50", "setting": "OPRM1 [2]", "result": "> 10", "unit": "µM"}, {"measurement": "Emax", "setting": "OPRM1 [2]; OPRM1, cAMP, Agonist, read-out: Max Response", "result": 13.3, "unit": "%"}, {"measurement": "IC50", "setting": "NMDAR (1A/2B)", "result": "> 10", "unit": "µM"}, {"measurement": "Emax", "setting": "NMDAR (1A/2B); NMDAR (1A/2B), Ion Channel, Blocker, read-out: Max Response", "result": 0, "unit": "%"}, {"measurement": "GI50", "setting": "OCI-Ly3", "result": 1.85, "unit": "µM"}, {"measurement": "GI50", "setting": "HT", "result": 0.545, "unit": "µM"}, {"measurement": "EC50", "setting": "ADRA2A", "result": "> 10", "unit": "µM"}, {"measurement": "Emax", "setting": "ADRA2A; ADRA2A, cAMP, Agonist, read-out: Max Response", "result": 38.9, "unit": "%"}, {"measurement": "Emax", "setting": "AVPR1A; read-out: Max Response", "result": 2.15, "unit": "%"}, {"measurement": "IC50", "setting": "AVPR1A; read-out: RC50 (IC50)", "result": "> 10", "unit": "µM"}, {"measurement": "EC50", "setting": "CHRM2", "result": 2.22, "unit": "µM"}, {"measurement": "Hill", "setting": "CHRM2; CHRM2, cAMP, Agonist", "result": 1.63}, {"measurement": "Emax", "setting": "CHRM2; CHRM2, cAMP, Agonist, read-out: Max Response", "result": 92.6, "unit": "%"}, {"measurement": "Emax", "setting": "CAV1.2", "result": 0, "unit": "%"}, {"measurement": "IC50", "setting": "CAV1.2", "result": "> 10", "unit": "µM"}, {"measurement": "Emax", "setting": "ROCK1; read-out: Max Response", "result": 0, "unit": "%"}, {"measurement": "IC50", "setting": "ROCK1; read-out: RC50 (IC50)", "result": "> 10", "unit": "µM"}]}]}
